# Reference: patent US20250297244A1, “COMPOSITIONS AND METHODS FOR THE DIAGNOSIS AND TREATMENT OF SEVERE COVID 19 AND OTHER IN[…]” (THE CHILDREN'S HOSPITAL OF PHILADELPHIA, priority 2022, published 2025)
# “Also recorded” adds a separate entry of the source.
# Assays:
# [1] = tested on: human CD4+ T cells; test: proliferation of activated human CD4+ T cells (anti-CD3+anti-CD28 beads, CFSE flow cytometry); assay type: cell-based; settings: activated in vitro for 72 hours with anti-CD3+anti-CD28 beads
# Description: FIG. 13. […] Human CD4+ T cells were activated in vitro for 72 hours using anti-CD3+anti-CD28 beads, and cell division was monitored by flow cytometry using CFSE, and the number of daughter cells generated was determined.
# [2] = tested on: murine Th2 cells; test: IL-4 production by murine Th2 cells after in vitro activation; assay type: cell-based; settings: low doses; anti-CD3+anti-CD28 beads for 6 hours
# Description: (§1) FIGS. 14A-14B. Dose-dependent effect of lometrexol on IFNg production by murine Th1 cells (FIG. 14A) and IL-4 production by murine Th2 cells (FIG. 14B) following in vitro activation with anti-CD3+anti-CD28 beads for 6 hours.
# [3] = tested on: murine Th1 cells; test: IFNg production by murine Th1 cells after in vitro activation; assay type: cell-based; settings: low doses; anti-CD3+anti-CD28 beads for 6 hours
# Description: as §1
# [4] = tested on: human tonsillar organoids; test: in vitro human tonsillar organoid model of T cell-dependent germinal center B cell differentiation; assay type: cell-based
# [5] = target: thymidylate synthase (TS) (Homo sapiens, UniProt P04818); settings: in vitro studies; cited from earlier work
# thymidylate synthase (TS), sequence (P04818 whole entry, species assumed): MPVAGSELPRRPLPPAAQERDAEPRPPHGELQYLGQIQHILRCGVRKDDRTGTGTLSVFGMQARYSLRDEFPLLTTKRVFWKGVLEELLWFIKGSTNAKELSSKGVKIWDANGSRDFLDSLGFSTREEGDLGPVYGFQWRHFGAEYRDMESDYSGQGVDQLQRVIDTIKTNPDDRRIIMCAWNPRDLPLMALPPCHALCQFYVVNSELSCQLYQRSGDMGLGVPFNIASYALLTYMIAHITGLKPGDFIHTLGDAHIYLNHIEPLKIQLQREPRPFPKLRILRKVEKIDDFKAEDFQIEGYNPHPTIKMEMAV
# [6] = target: dihydrofolate reductase (DHFR) (Homo sapiens, UniProt P00374); settings: in vitro studies; cited from earlier work
# dihydrofolate reductase (DHFR), sequence (P00374 whole entry, species assumed): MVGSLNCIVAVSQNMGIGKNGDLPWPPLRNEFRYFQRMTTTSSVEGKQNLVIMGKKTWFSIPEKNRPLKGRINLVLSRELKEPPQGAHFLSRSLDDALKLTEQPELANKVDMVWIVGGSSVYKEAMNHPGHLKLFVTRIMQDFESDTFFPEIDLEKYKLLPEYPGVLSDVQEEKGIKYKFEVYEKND
Structure (SMILES),"proliferation of activated CD4+ T cells (cell division, number of daughter cells) [1]",production of IL-4 from Th2 cells [2],production of IFNγ from Th1 cells [3],"CD27+CD38+ GCB cell plasmablast differentiation / plasmablast frequency ([4]; day 7 of culture, lometrexol added after 48 hours, three tonsil donors)",B or T cell survival (viability) ([4]; day 7 tonsillar organoids),TFH frequency ([4]; day 7 tonsillar organoids),T cell-B cell collaboration (humoral immune response) ([4]; tonsil organoid system),inhibition of thymidylate synthase (TS) [5],inhibition of dihydrofolate reductase (DHFR) [6]
Nc1nc2c(c(=O)[nH]1)C[C@@H](CCc1ccc(C(=O)N[C@@H](CCC(=O)O)C(=O)O)cc1)CN2 [lometrexol],can inhibit; also recorded: Dose-dependent inhibition,at low doses enhances,at low doses enhances,abrogated plasmablast differentiation in a dose-dependent manner; also recorded: Plasmablast frequency diminishment,without affecting,without affecting,blocks,,
Nc1nc2[nH]cc(CCc3ccc(C(=O)N[C@@H](CCC(=O)O)C(=O)O)cc3)c2c(=O)[nH]1 [pemetrexed],,,,,,,,inhibits,inhibits
